In US20250129430A1, “HIGH ATP-AFFINITY PROTEIN AS THERAPEUTIC TARGET FOR INTRACTABLE CANCER MOLECULAR SUBTYPES AND INHIBITOR THEREOF” (VeraVerse Co., Ltd., priority 2021, published 2025):
Counter-ions that a name gives are not always drawn.

Experiments:
Assay type in all cases: cell-based, human
[1] = tested on: FU97; test: Cell viability drug screen, 12-point dose-response AUC; design: Average Area Under the Viability Curve (AUC), AUC norm value: scale not given here; details: FU97 cells, 72 hours
Procedure, shortened: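 Trapezoidal AUC of a 12-point, DMSO-normalized dose-response curve. Luminescent viability was measured after 72 h of exposure at 37° C to half-log serial dilutions (0.5% DMSO control), dosed 24 h after plating FU97 cells at 5×10^3 per well.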

[2] = tested on: SNU620; test: as above; details: SNU620 cells, 72 hours
Procedure, shortened: (§1)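 Luminescent viability readings, taken 15 min after reagent addition at room temperature, were normalized to the 0.5% DMSO control to build 12-point dose-response curves. Trapezoidal integration gave the AUC. Cells had been plated at 5×10^3 per well and then exposed to half-log dilutions for 72 h.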

[3] = tested on: SNU638; test: as above; details: SNU638 cells, 72 hours
Procedure, shortened: as §1

[4] = tested on: AGS; test: as above; details: 72 hours; for Average Area Under the Viability Curve (AUC), AUC norm value: AGS cells (non-SEM subtype)
Procedure, shortened: (§2)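 Gastric cancer lines seeded 5×10^3 cells/well, dosed after 24 h with half-log 12-point compound dilutions (DMSO 0.5% control), then 72 h at 37 °C. Viability by luminescence, normalized to DMSO; AUC by trapezoidal method, averaged over repeats.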

[5] = tested on: NCC19; test: as above; details: NCC19 cells, 72 hours
Procedure, shortened: as §1

[6] = tested on: SNU719; test: as above; details: SNU719 cells, 72 hours
Procedure, shortened: as §2

[7] = tested on: YCC2; test: as above; details: YCC2 cells, 72 hours
Procedure, shortened: as §1

[8] = tested on: NCC24; test: as above; details: NCC24 cells, 72 hours
Procedure, shortened: as §1

[9] = tested on: SNU1750; test: as above; details: 72 hours; for Average Area Under the Viability Curve (AUC), AUC norm value: SNU1750 cells (SEM subtype)
Procedure, shortened: as §1

[10] = tested on: MKN28; test: as above; details: MKN28 cells, 72 hours
Procedure, shortened: as §1

[11] = tested on: MKN45; test: as above; details: 72 hours; for Average Area Under the Viability Curve (AUC), AUC norm value: MKN45 cells (non-SEM subtype)
Procedure, shortened: as §2

[12] = tested on: SNU668; test: as above; details: 72 hours; for Average Area Under the Viability Curve (AUC), AUC norm value: SNU668 cells (SEM subtype)
Procedure, shortened: as §1

[13] = tested on: NCI_N87; test: as above; details: NCI_N87 cells, 72 hours
Procedure, shortened: as §1

[14] = tested on: KATO3; test: as above; details: KATO3 cells, 72 hours
Procedure, shortened: as §1

[15] = tested on: SNU484; test: as above; details: 72 hours; for Average Area Under the Viability Curve (AUC), AUC norm value: SNU484 cells (SEM subtype)
Procedure, shortened: as §1

[16] = tested on: YCC11; test: as above; details: 72 hours; for Average Area Under the Viability Curve (AUC), AUC norm value: YCC11 cells (SEM subtype)
Procedure, shortened: as §1

[17] = tested on: MKN74; test: as above; details: MKN74 cells, 72 hours
Procedure, shortened: as §2

[18] = tested on: YCC3; test: as above; details: YCC3 cells, 72 hours
Procedure, shortened: as §1

[19] = tested on: SNU16; test: as above; details: SNU16 cells, 72 hours
Procedure, shortened: as §1

[20] = tested on: MKN1; test: as above; details: MKN1 cells, 72 hours
Procedure, shortened: as §1

[21] = tested on: SNU216; test: as above; details: 72 hours; for Average Area Under the Viability Curve (AUC), AUC norm value: SNU216 cells (non-SEM subtype)
Procedure, shortened: as §2

[22] = tested on: SK4; test: as above; details: 72 hours; for Average Area Under the Viability Curve (AUC), AUC norm value: SK4 cells (SEM subtype)
Procedure, shortened: as §1

[23] = tested on: SNU1; test: as above; details: SNU1 cells, 72 hours
Procedure, shortened: as §1

[24] = tested on: Hs746T; test: as above; details: 72 hours; for Average Area Under the Viability Curve (AUC), AUC norm value: Hs746T cells (SEM subtype)
Procedure, shortened: as §1

[25] = tested on: OCUM1; test: as above; details: OCUM1 cells, 72 hours
Procedure, shortened: as §1

[26] = tested on: NCC20; test: as above; details: NCC20 cells, 72 hours
Procedure, shortened: as §1

[27] = tested on: SNU601; test: as above; details: SNU601 cells, 72 hours
Procedure, shortened: as §1

[28] = tested on: NCC59; test: as above; details: NCC59 cells, 72 hours
Procedure, shortened: as §1

[29] = tested on: SNU1967; test: as above; details: SNU1967 cells, 72 hours
Procedure, shortened: as §1

[30] = tested on: non-SEM-type gastric cancer cell line; test: Cell viability drug screen, AUC summary over non-SEM-type lines; details: in the non-SEM-type gastric cancer cell line

With CCCCc1oc2ccc(NS(C)(=O)=O)cc2c1C(=O)c1ccc(OCCCN(CCCC)CCCC)cc1 [Dronedarone HCl (Multaq), Dronedarone HCl] the “Average Area Under the Viability Curve (AUC), AUC norm value” (from here on “Average Area Under the Viability Curve”) [1] was 0.3807, the “Average Area Under the Viability Curve” value [2] was −0.3353 and the “Average Area Under the Viability Curve” value [3] was −0.5649. For the same compound, the “Average Area Under the Viability Curve” value [4] was −0.6415, the “Average Area Under the Viability Curve” value [5] was −0.3711 and the “Average Area Under the Viability Curve” value [6] was 1.291. The “Average Area Under the Viability Curve” value [7] was −0.08246, the “Average Area Under the Viability Curve” value [8] was 1.044 and the “Average Area Under the Viability Curve” value [9] was 0.06657. For the same compound, the “Average Area Under the Viability Curve” value [10] was −0.1927, the “Average Area Under the Viability Curve” value [11] was 0.6772 and the “Average Area Under the Viability Curve” value [12] was 0.4123. The “Average Area Under the Viability Curve” value [13] was −0.08952, the “Average Area Under the Viability Curve” value [14] was 0.1721 and the “Average Area Under the Viability Curve” value [15] was −0.2497. The “Average Area Under the Viability Curve” value [16] was −0.521, the “Average Area Under the Viability Curve” value [17] was −1.381 and the “Average Area Under the Viability Curve” value [18] was 0.8816. The “Average Area Under the Viability Curve” value [19] was −0.2149, the “Average Area Under the Viability Curve” value [20] was 0 and the “Average Area Under the Viability Curve” value [21] was 0.08211. The “Average Area Under the Viability Curve” value [22] was −0.3488, the “Average Area Under the Viability Curve” value [23] was 1.295 and the “Average Area Under the Viability Curve” value [24] was −0.03562. For the same compound, the “Average Area Under the Viability Curve” value [25] was 0.02571, the “Average Area Under the Viability Curve” value [26] was −0.2985 and the “Average Area Under the Viability Curve” value [27] was 3.848. The “Average Area Under the Viability Curve” value [28] was 0.6769, the “Average Area Under the Viability Curve” value [29] was 0.1919 and the AUC value [30] was “high”.

With COC(=O)Nc1nc2ccc(Sc3ccccc3)cc2[nH]1 [Fenbendazole] the “area under the viability curve (AUC), normalized” value (“area … normalized” below) ([1]; 12-point dose-response) was −1.854, the “area … normalized” value ([2]; 12-point dose-response) was −1.425 and the “area … normalized” value ([3]; 12-point dose-response) was −0.3689. The “area … normalized” value ([4]; AGS cells, 12-point dose-response) was −1.16, the “area … normalized” value ([5]; 12-point dose-response) was −0.2779 and the “area … normalized” value ([6]; 12-point dose-response) was 3.382. For the same compound, the “area … normalized” value ([7]; 12-point dose-response) was 0.5695, the “area … normalized” value ([8]; 12-point dose-response) was −0.8488 and the “area … normalized” value ([9]; SNU1750 cells, 12-point dose-response) was 0.2596. The “area … normalized” value ([10]; 12-point dose-response) was −0.7877, the “area … normalized” value ([11]; MKN45 cells, 12-point dose-response) was 1.407 and the “area … normalized” value ([12]; SNU668 cells, 12-point dose-response) was 0. The “area … normalized” value ([13]; 12-point dose-response) was −1.124, the “area … normalized” value ([14]; 12-point dose-response) was 2.344 and the “area … normalized” value ([15]; SNU484 cells, 12-point dose-response) was −0.08111. For the same compound, the “area … normalized” value ([16]; YCC11 cells, 12-point dose-response) was −0.7305, the “area … normalized” value ([17]; 12-point dose-response) was −0.2802 and the “area … normalized” value ([18]; 12-point dose-response) was 1.376. The “area … normalized” value ([19]; 12-point dose-response) was 1.2297, the “area … normalized” value ([20]; 12-point dose-response) was −0.0568 and the “area … normalized” value ([21]; SNU216 cells, 12-point dose-response) was 1.005. For the same compound, the “area … normalized” value ([22]; SK4 cells, 12-point dose-response) was −0.2953, the “area … normalized” value ([23]; 12-point dose-response) was 0.1629 and the “area … normalized” value ([24]; Hs746T cells, 12-point dose-response) was 0.5728. For the same compound, the “area … normalized” value ([25]; 12-point dose-response) was 1.283, the “area … normalized” value ([26]; 12-point dose-response) was −0.5211 and the “area … normalized” value ([27]; 12-point dose-response) was 0.599. For the same compound, the “area … normalized” value ([28]; 12-point dose-response) was 1.9513, the “area … normalized” value ([29]; 12-point dose-response) was 0.184 and the AUC value [30] was “high”.

For c1ccc2c(-c3cnn4cc(-c5ccc(N6CCNCC6)cc5)cnc34)ccnc2c1 [LDN193189], the “Average Area Under the Viability Curve” value [1] was −0.1434, the “Average Area Under the Viability Curve” value [2] was −2.131 and the “Average Area Under the Viability Curve” value [3] was −0.9699. For the same compound, the “Average Area Under the Viability Curve” value [4] was −0.1896, the “Average Area Under the Viability Curve” value [5] was 0.06094 and the “Average Area Under the Viability Curve” value [6] was 0.6043. The “Average Area Under the Viability Curve” value [7] was 0.1163, the “Average Area Under the Viability Curve” value [8] was −0.1464 and the “Average Area Under the Viability Curve” value [9] was −0.4695. For the same compound, the “Average Area Under the Viability Curve” value [10] was 0.5758, the “Average Area Under the Viability Curve” value [11] was 0.9516 and the “Average Area Under the Viability Curve” value [12] was 0.06394. For the same compound, the “Average Area Under the Viability Curve” value [13] was 1.172, the “Average Area Under the Viability Curve” value [14] was 0.6205 and the “Average Area Under the Viability Curve” value [15] was −0.5999. The “Average Area Under the Viability Curve” value [16] was −0.7359, the “Average Area Under the Viability Curve” value [17] was −1.246 and the “Average Area Under the Viability Curve” value [18] was 0.08342. For the same compound, the “Average Area Under the Viability Curve” value [19] was 1.525, the “Average Area Under the Viability Curve” value [20] was 0 and the “Average Area Under the Viability Curve” value [21] was −0.7838. The “Average Area Under the Viability Curve” value [22] was −0.5339, the “Average Area Under the Viability Curve” value [23] was 0.8706 and the “Average Area Under the Viability Curve” value [24] was −0.2954. For the same compound, the “Average Area Under the Viability Curve” value [25] was −1.113, the “Average Area Under the Viability Curve” value [26] was 0.02059 and the “Average Area Under the Viability Curve” value [27] was 3.699. The “Average Area Under the Viability Curve” value [28] was 1.892, the “Average Area Under the Viability Curve” value [29] was −1.419 and the AUC value [30] was “high”.
